The values below come from patent publication US20110065762A1, “METHODS OF USE OF ANTIVIRAL COMPOUNDS” (priority 2009, published 2011).

Usually inhibition stands for the percentage by which the read-out fell short of the control.

The target in the first assay is T1, M2(S31) (Influenza A virus, UniProt P0DOF5).
T1 construct: expressed in transfected cells; host or cells: CHO cells (membrane preparation adsorbed to SSM sensors)
T1 sequence (P0DOF5 whole entry): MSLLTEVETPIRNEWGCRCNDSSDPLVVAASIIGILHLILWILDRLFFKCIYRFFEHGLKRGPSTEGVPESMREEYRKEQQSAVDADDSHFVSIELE
Briefly: Cell-free electrophysiology of M2 proton channels on solid supported membranes (IonGate SURFE2R screen). The conditions noted are these: 25 μM inhibitor, activation by pH jump 7.0 to 6.0, % inhibition=100×(1−I/Io), 25 µM. The class given is biochemical.
Regarding `N#CC1C2CC3CC1CC(O)(C3)C2` (stereo not drawn) [Example 8], the “IonGate_M2(S31)_Screen % Inhibition at 25 μM” value is reported as “B (11-50% (B))”.
Consider `N#CC1C2CC3CC1CC(O)(C3)C2` (stereo not drawn) [Example 9], for which the “IonGate_M2(S31)_Screen % Inhibition at 25 μM” value is on record as “C (1-10% (C))”.
Consider `N=C(N)NC1C2CC3CC1CC(Cl)(C3)C2` (stereo not drawn) [Example 23], for which the “IonGate_M2(S31)_Screen % Inhibition at 25 μM” value is “B (11-50% (B))”.
As for `N=C(N)NC1C2CC3CC1CC(Cl)(C3)C2` (stereo not drawn) [Example 24], the “IonGate_M2(S31)_Screen % Inhibition at 25 μM” value is on record as “A (51-95% (A))”.

Still in this assay, the particulars now being: 25 μM inhibitor, activation by pH jump 7.0 to 6.0, % inhibition=100×(1−I/Io), read-out: IonGate_M2(S31)_Screen % Inhibition at 25 μM.
Consider `NCC1(O)C2CC3CC(C2)CC1C3` (stereo not drawn) [Example 1], for which the inhibition at 25 µM was in the range of 51 to 95%.
As to `OCCNC1C2CC3CC(C2)CC1C3` (stereo not drawn) [Example 2], the inhibition at 25 µM lay in the range of 51 to 95%.
For the molecule `NC1C2CC3CC1CC(O)(C3)C2` (stereo not drawn) [Example 3], the inhibition at 25 µM is 11 to 50%.
The same measure, in the same setting: next, `OC12CC3CC(C1)C(n1ccnc1)C(C3)C2` (stereo not drawn) [Example 4, 4-imidazol-1-yladamantan-1-ol]: 11 to 50%; `NCC1C2CC3CC1CC(O)(C3)C2` (stereo not drawn) [Example 5]: 11 to 50%; `NCC1(O)C2CC3CC1CC(O)(C3)C2` (stereo not drawn) [Example 6]: 11 to 50%.
Consider `N=C(N)C1C2CC3CC(C2)CC1C3` (stereo not drawn) [Example 11], for which the inhibition at 25 µM is 51 to 95%.
`N#CC1C2CC3CC1CC(Cl)(C3)C2` (stereo not drawn) [Example 12]: the inhibition at 25 µM is 11 to 50%.
Same read-out and setting: next, `N=C(N)C1C2CC3CC1CC(Cl)(C3)C2` (stereo not drawn) [Example 14]: 51 to 95%.
Take `NC1C2CC3CC1CC(Cl)(C3)C2` (stereo not drawn) [Example 15]: the inhibition at 25 µM was 51 to 95%.
On to `N#CC1C2CC3CC(C2)CC1C3` (stereo not drawn) [Example 16], for which the inhibition at 25 µM lay within 51 to 95%.
On the same count and under the same terms, next, `O=[N+]([O-])C1C2CC3CC1CC(Cl)(C3)C2` (stereo not drawn) [Example 18]: 1 to 10%; `NC1C2CC3CC(C2)CC1(O)C3` (stereo not drawn) [Example 19]: 51 to 95%.
The same measure, in the same setting: next, `O=[N+]([O-])C1C2CC3CC(C2)CC1(O)C3` (stereo not drawn) [Example 20]: 11 to 50%; `C1NC2C3CC4CC(C3)CC2(C4)O1` (stereo not drawn) [Example 21]: 51 to 95%.
On the same count and under the same terms, next, `NC1C2CC3CC1CC(S)(C3)C2` (stereo not drawn) [Example 22]: 51 to 95%.
As for `NC1C2CC3CC(C2)CC1C3` (stereo not drawn) [Example 26], the inhibition at 25 µM fell in the range of 11 to 50%.
On the same count and under the same terms, next, `C1C2CC3CC1CC(C2)C1NC31` (stereo not drawn) [Example 27]: 11 to 50%.
On the same count and under the same terms, next, `O=C1C(=O)C2CC3CC(CC1C3)C2` [Example 28]: 11 to 50%; `O/N=C1\C(=N\O)C2CC3CC(CC1C3)C2` [Example 29]: 11 to 50%; `NC1C2CC3CC(C2)CC(C3)C1N` (stereo not drawn) [Example 30]: 51 to 95%.
Same read-out and setting: next, `O=C1CC2CC3CC1CC(O)(C2)C3` (stereo not drawn) [Example 31]: 11 to 50%; `O/N=C1\CC2CC3CC1CC(O)(C2)C3` (stereo not drawn) [Example 32]: 11 to 50%; `NC1CC2CC3CC1CC(O)(C2)C3` (stereo not drawn) [Example 33]: 11 to 50%.
With `OC12CC3CC(C1)C1NC1C(C3)C2` (stereo not drawn) [Example 34], the inhibition at 25 µM lay within 11 to 50%.
Take `O=C1C(=O)C2CC3CC1CC(O)(C3)C2` [Example 35]: the inhibition at 25 µM lay in the range of 1 to 10%.
Same read-out and setting: next, `OC1C2CC3CC(CC(O)(C3)C2)C1O` (stereo not drawn) [Example 36]: 1 to 10%; `O=C1CC2CC3CC1CC(Cl)(C2)C3` (stereo not drawn) [Example 37]: 11 to 50%.
Regarding `O/N=C1\CC2CC3CC1CC(Cl)(C2)C3` (stereo not drawn) [Example 38], the inhibition at 25 µM was 11 to 50%.
On the same count and under the same terms, next, `NC1CC2CC3CC1CC(Cl)(C2)C3` (stereo not drawn) [Example 39]: 11 to 50%.
For `O=C1C(=O)C2CC3CC1CC(Cl)(C3)C2` [Example 40], the inhibition at 25 µM was in the range of 1 to 10%.
The same measure, in the same setting: next, `OC1C2CC3CC(CC(Cl)(C3)C2)C1O` (stereo not drawn) [Example 41]: 1 to 10%.
Regarding `ON=C1C(=NO)C2CC3CC1CC(Cl)(C3)C2` [Example 42], the inhibition at 25 µM fell in the range of 11 to 50%.
With `NC1C2CC3CC(CC(Cl)(C3)C2)C1N` (stereo not drawn) [Example 43], the inhibition at 25 µM lay in the range of 1 to 10%.
For the molecule `COC12CC3CC(C1)C(C#N)C(C3)C2` (stereo not drawn) [Example 44], the inhibition at 25 µM is 1 to 10%.
